Among the data in PubChem BioAssay AID192 (DTP/NCI, 2004) are T/C values, retold here.

In this assay the test system is BDF1 mice, B16 melanoma ip, median survival T/C. Description: NCI In Vivo Anticancer Drug Screen. Data for tumor model B16 Melanoma (intraperitoneal) in B6D2F1 (BDF1) mice. The settings on record: endpoint: median survival time, higher = longer survival. In short, it runs like this: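 Read-out: survival or tumor size, given as treated/control ratio. Controls received vehicle only; animals bore transplantable tumors.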

The mark [1] stands for this setting: dose: 100.0 mg/kg/injection, schedule: Q04DX003 (ip), vehicle: Klucel (hydroxypropylcellulose) (HPC).
Setting [2] is: dose: 200.0 mg/kg/injection, schedule: Q04DX003 (ip), vehicle: Klucel (hydroxypropylcellulose) (HPC).
[3] abbreviates: dose: 400.0 mg/kg/injection, schedule: Q04DX003 (ip), vehicle: Klucel (hydroxypropylcellulose) (HPC).
[4] abbreviates: dose: 6.25 mg/kg/injection, schedule: Q01DX009 (ip), vehicle: saline with Tween-80.
Where [5] appears, read: dose: 12.5 mg/kg/injection, schedule: Q01DX009 (ip), vehicle: saline with Tween-80.
Setting [6] is: dose: 25.0 mg/kg/injection, schedule: Q01DX009 (ip), vehicle: saline with Tween-80.
[7] abbreviates: dose: 100.0 mg/kg/injection, schedule: Q01DX009 (ip), vehicle: saline with Tween-80.
Setting [8] is: dose: 200.0 mg/kg/injection, schedule: Q01DX009 (ip), vehicle: saline with Tween-80.
Where [9] appears, read: dose: 50.0 mg/kg/injection, schedule: Q01DX009 (ip), vehicle: saline with Tween-80.

SMILES strings stand for the structures. Several values for one entry are separate records, joined by “and”; a condition that tells them apart may be missing. Equal values may be shown once. Inconclusive results and toxic doses are left out.

As for `O=C1CC(CO)CN1CCc1ccccc1` (stereo not drawn), the T/C is, setting by setting: under setting [1], 110 % of control; under setting [2], 107 % of control; under setting [3], 102 % of control.
In the case of `NC(CC(=O)O)CC(=O)O`, the T/C was 91 % of control (dose: 25.0 mg/kg/injection, schedule: Q01DX009 (ip), vehicle: suspension in saline); 92 % of control (dose: 50.0 mg/kg/injection, schedule: Q01DX009 (ip), vehicle: suspension in saline); 103 % of control (dose: 100.0 mg/kg/injection, schedule: Q01DX009 (ip), vehicle: suspension in saline); 100 % of control (dose: 200.0 mg/kg/injection, schedule: Q01DX009 (ip), vehicle: suspension in saline); 90 % of control (dose: 400.0 mg/kg/injection, schedule: Q01DX009 (ip), vehicle: suspension in saline).
Turning to `Cc1ccc(NC(=O)CCl)cc1C`, the T/C by setting is: under setting [4], 102 % of control; under setting [5], 100 % of control; under setting [6], 95 % of control; under setting [7], 95 % of control; under setting [8], 95 % of control.
For `Cc1cc2oc(=O)c3c(c2c(O)c1CN1CCOCC1)CCCC3`, the T/C (dose: 64.0 mg/kg/injection, schedule: Q01DX009 (ip), vehicle: Klucel (hydroxypropylcellulose) (HPC)) was 103 % of control; the T/C (dose: 128.0 mg/kg/injection, schedule: Q01DX009 (ip), vehicle: Klucel (hydroxypropylcellulose) (HPC)) is 98 % of control; the T/C (dose: 256.0 mg/kg/injection, schedule: Q01DX009 (ip), vehicle: Klucel (hydroxypropylcellulose) (HPC)) is 108 % of control.
With `CCN(CC)Cc1ccccn1`, the T/C by setting is: (dose: 25.0 mg/kg/injection, schedule: Q01DX009 (ip), vehicle: saline) 100 % of control; (dose: 50.0 mg/kg/injection, schedule: Q01DX009 (ip), vehicle: saline) 97 % of control; (dose: 100.0 mg/kg/injection, schedule: Q01DX009 (ip), vehicle: saline) 100 % of control.
Regarding `Cc1cccc(NC(=O)Nc2ccc(Cl)cc2)c1C`, the T/C is 112 % of control (dose: 100.0 mg/kg/injection, schedule: Q01DX009 (ip), vehicle: gum acacia) and 107 % of control (dose: 200.0 mg/kg/injection, schedule: Q01DX009 (ip), vehicle: gum acacia).
Take `N#Cc1ccc(NC(=O)Nc2nccs2)cc1`: the T/C (dose: 12.5 mg/kg/injection, schedule: Q01DX009 (ip), vehicle: distilled water + Tween-80) is 115 % of control.
In the case of `CCCCCCC(=O)CCCCCCCCCCCCC(=O)OC`, the T/C (dose: 1.56 mg/kg/injection, schedule: Q01DX009 (ip), vehicle: saline with Tween-80) is 98 % of control; the T/C (dose: 3.13 mg/kg/injection, schedule: Q01DX009 (ip), vehicle: saline with Tween-80) was 105 % of control; the T/C under setting [4] was 97 % of control.
Consider `CC(=O)C1=C(O)C2C3c4c[nH]c5cccc(c45)CC3C(C)(C)N2C1=O` (stereo not drawn), for which the T/C was 102 % of control (dose: 0.13 mg/kg/injection, schedule: Q01DX009 (ip), vehicle: saline); 106 % of control (dose: 0.25 mg/kg/injection, schedule: Q01DX009 (ip), vehicle: saline); 106 % of control (dose: 0.5 mg/kg/injection, schedule: Q01DX009 (ip), vehicle: saline); 106 % of control (dose: 1.0 mg/kg/injection, schedule: Q01DX009 (ip), vehicle: saline); 102 % of control (dose: 2.0 mg/kg/injection, schedule: Q01DX009 (ip), vehicle: saline); 107 % of control (dose: 4.0 mg/kg/injection, schedule: Q01DX009 (ip), vehicle: saline). For the setting “dose: 8.0 mg/kg/injection, schedule: Q01DX009 (ip), vehicle: saline”, the T/C was 111 % of control.
With `O=[N+]([O-])c1ccc2ccccc2c1-c1c([N+](=O)[O-])ccc2ccccc12`, the T/C is 97 % of control under setting [9], 101 % of control under setting [7] and 97 % of control under setting [8].
Turning to `CCCC/C=C/CCCCCCCC(=O)OCCCCCCCCCCCCCCCC`, the T/C was 100 % of control under setting [5], 101 % of control under setting [6], 94 % of control under setting [9] and 94 % of control under setting [7].
As to `CC(COCc1ccccc1)NCc1ccccc1` (stereo not drawn), the T/C was 96 % of control (dose: 25.0 mg/kg/injection, schedule: Q01DX009 (ip), vehicle: Klucel (hydroxypropylcellulose) (HPC)) and 90 % of control (dose: 50.0 mg/kg/injection, schedule: Q01DX009 (ip), vehicle: Klucel (hydroxypropylcellulose) (HPC)).
As to `Cc1ccc(C)c(NC(=O)Nc2cccc3ccccc23)c1`, the T/C by setting is: (dose: 9.0 mg/kg/injection, schedule: Q01DX009 (ip), vehicle: gum acacia) 108 % of control; (dose: 18.0 mg/kg/injection, schedule: Q01DX009 (ip), vehicle: gum acacia) 98 % of control; (dose: 37.0 mg/kg/injection, schedule: Q01DX009 (ip), vehicle: gum acacia) 91 % of control.
On to `COc1cc2c3c(c1)/C(=N\NC(N)=O)CCN3CCC2`, for which the T/C runs as follows: under setting [1], 97 % of control; under setting [2], 100 % of control; under setting [3], 100 % of control.
With `O=C(O)c1cc2ccccc2o1`, the T/C reads like this: (dose: 16.5 mg/kg/injection, schedule: Q01DX009 (ip), vehicle: saline with Tween-80) 100 % of control; under setting [6], 100 % of control; (dose: 37.5 mg/kg/injection, schedule: Q01DX009 (ip), vehicle: saline with Tween-80) 92 % of control; under setting [9], 111 % of control; under setting [7], 102 % of control.
As for `CCOc1ccc2c(ccc(/C=C\c3cc(C)c4cccnc4c3O)[n+]2C)c1`, the T/C was 102 % of control under setting [4] and 101 % of control under setting [5].
Take `Cc1nc(SCc2ccc(Cl)cc2)[nH]c(=O)c1CCO`: the T/C by setting is: (dose: 100.0 mg/kg/injection, schedule: Q04DX003 (ip), vehicle: saline with Tween-80) 100 % of control; (dose: 200.0 mg/kg/injection, schedule: Q04DX003 (ip), vehicle: saline with Tween-80) 102 % of control; (dose: 400.0 mg/kg/injection, schedule: Q04DX003 (ip), vehicle: saline with Tween-80) 92 % of control.
For the compound `O=C(Nc1nncs1)c1ccncc1`, the T/C under setting [5] was 100 % of control; the T/C under setting [6] is 101 % of control; the T/C under setting [9] is 109 % of control; the T/C under setting [7] was 113 % of control; the T/C under setting [8] was 109 % of control.
Turning to `O=C1C(N2CC2)=C(N2CC2)C(=O)C(N2CC2)=C1N1CC1`, the T/C is, setting by setting: (dose: 10.0 micrograms/kg/injection, schedule: Q01DX009 (ip), vehicle: saline) 100 % of control and 118 % of control; (dose: 20.0 micrograms/kg/injection, schedule: Q01DX009 (ip), vehicle: saline) 120 % of control.
Take `CCN(CC)CCCNc1nccc2c(C)c3[nH]c4ccncc4c3cc12`: the T/C was 115 % of control (dose: 0.37 mg/kg/injection, schedule: Q01DX009 (ip), vehicle: other); 160 % of control (dose: 0.38 mg/kg/injection, schedule: Q01DX009 (ip), vehicle: other); 171 % of control and 177 % of control (dose: 0.75 mg/kg/injection, schedule: Q01DX009 (ip), vehicle: other); 163 % of control and 218 % of control (dose: 1.5 mg/kg/injection, schedule: Q01DX009 (ip), vehicle: other); 163 % of control and 233 % of control (dose: 3.0 mg/kg/injection, schedule: Q01DX009 (ip), vehicle: other); 188 % of control and 213 % of control (dose: 6.0 mg/kg/injection, schedule: Q01DX009 (ip), vehicle: other).
Regarding `CCC1=C[C@H]2CN(CCc3c([nH]c4ccccc34)[C@@](C(=O)OC)(c3cc4c(cc3OC)N(C)[C@H]3[C@@](O)(C(=O)OC)[C@H](OC(C)=O)[C@]5(CC)C=CCN6CC[C@]43[C@@H]65)C2)C1`, the T/C was 116 % of control (dose: 0.05 mg/kg/injection, schedule: Q01DX009 (ip), vehicle: saline); 100 % of control and 107 % of control (dose: 0.06 mg/kg/injection, schedule: Q01DX009 (ip), vehicle: water); 116 % of control (dose: 0.1 mg/kg/injection, schedule: Q01DX009 (ip), vehicle: saline); 103 % of control and 120 % of control (dose: 0.13 mg/kg/injection, schedule: Q01DX009 (ip), vehicle: water); 108 % of control (dose: 0.25 mg/kg/injection, schedule: Q01DX009 (ip), vehicle: water); 181 % of control (dose: 0.8 mg/kg/injection, schedule: Q01DX009 (ip), vehicle: saline). Besides, the T/C is 208 % of control (dose: 1.6 mg/kg/injection, schedule: Q01DX009 (ip), vehicle: saline) and 175 % of control (dose: 4.0 mg/kg/injection, schedule: Q04DX003 (ip), vehicle: water).
